{
  "source": "patent US4269843A",
  "about": "“N-Sec-alkyl analogs of norcodeine and normorphine and analgesic compositions and methods employing the normorphine derivatives” (priority 1980, dated 1981)",
  "key": {"[1]": {"details": "literature; cited from earlier work"}, "mice [2]": {"test_system": "mice", "assay": "animal or person", "format": "in vivo, mouse", "details": "for ED50: Mus musculus, mice, dose [micromoles per kg of body weight] which gives a group mean response time of 5 seconds, read-out: Tail Flick (ED50); for analgesic activity (in words): summary statement, mice tail flick and writhing assays", "excerpt": "(§1) Using mice, the compounds of this invention were subjected to the Tail Flick Analgesic Assay, the Writhing Analgesic Assay, the Straub Tail Antagonist Assay and the Mouse Jump Physical Dependence Assay, said assays being described in the literature as follows:\nTail Flick Analgesic Assay\nD'Amour, F. E and Smith, D. L., J. Pharmacol. Exp. Therap. 72, 74-79 (1941)\nHowes, J. F., Harris, L. S., Dewey, W. L. and Voyda, C. A., J. Pharmacol. Exp. Therap. 169, 23-28 (1969)\nDewey, W. L., Harris, L. S., Howes, J. F. and Nuite, J. A., J. Pharmacol. Exp. Therap. 175, 435-442 (1970)\nThe Tail Flick Analgesic Assay represents a test procedure in which heat from an intense light source is focused on the mouse's tail. When pain is detected by the mouse the tail gives a characteristic flicking response. In untreated controls the intervals from exposure to flick is about 2 seconds, while when using an effective analgesic the interval from exposure to flick is usually about 6 to 10 seconds. The ED50 values given in Table 1 below represent the dose [micromoles (μM) per kg of body weight] which gives a group mean response time of 5 seconds."}, "mice [3]": {"test_system": "mice", "assay": "animal or person", "format": "in vivo", "details": "Mus musculus, ip, phenylquinone i.p., dose which eliminates any writhing in 50% of the treated mice", "excerpt": "as §1\nBlumberg, H., Wolf, P. S. and Dayton, H. B., Proc. soc. Exper. Biol. Med., 118, 763 (1965).\nThe ED50 values given in Table 1 below represent the dose (μM/kg) which eliminates any such writhing in 50% of the treated mice."}, "mice [4]": {"test_system": "mice", "assay": "Straub Tail Antagonist Assay (morphine-injected mice)", "format": "in vivo, mouse", "details": "for ED50: Mus musculus, dose which abolishes the response in 50% of the test mice, read-out: Inhibition of Straub tail response (ED50); for antagonist properties (in words): summary statement", "excerpt": "as §1\nStraub Tail Antagonist Assay\nBlumberg, H. and Dayton, H. B. In Narcotic antagonists Advances in Biochemical Psychopharmacology, Vol. 8, Ed., Brande, M. C., Harris L. S."}, "mice [5]": {"test_system": "mice", "assay": "Mouse Jump Physical Dependence Assay", "format": "in vivo", "details": "for Total Number Mice Affected (Jumped): i.p., 30 min; for number of mice jumping / withdrawal symptoms (in words): Naloxone 100 mg/kg on day 4, 30 minutes", "excerpt": "as §1\nSaelens, J. K., Granat, F. R. and Sawyer, W. K. Arch. int. Pharmacodyn 190, 213-218 (1971).\nUsing mice, tests were made to determine the physical dependence capacity of compounds 7(S) 7(R) and 9 as measured by the Mouse Jump Test, this being a simple screening method to estimate the physical dependence capacity of analgesics. In this mouse jumping test, the mice are injected (i.p.) 5× on day 1 with gradually increasing dosages ranging from 8 to 100 mg/kg of body weight. On days 2 and 3 the mice (in all except one test) were given 100 mg/kg 4×. In the one test, dosage was raised to 200-300 mg/kg on day 2 and to 300 mg/kg on day 3. On day 4 all the mice received one shot (100 mg/kg) of the antogonist Naloxone. Following this all mice were caged for 30 minutes and a record was made of the number of mice jumping during this interval."}, "[6]": {"details": "cited from earlier work; for analgesic / agonist activity (in words): literature"}, "[7]": {"details": "8-100 mg/kg day 1, 100 mg/kg days 2 and 3, 100 mg/kg Naloxone day 4, mice tested: 7(S) 20, 7(R) 12, 9 10, Morphine 10, Nalline 12"}},
  "data": [
    {"molecule": "CCCN1CC[C@]23c4c5ccc(O)c4O[C@H]2[C@@H](O)C=C[C@H]3[C@H]1C5", "note": "[N-propyl normorphine]", "values": [
      {"measurement": "antagonist activity (in words)", "setting": "[1]", "value": "morphine antagonists only"}
    ]},
    {"molecule": "C=C[C@@H](C)N1CC[C@]23c4c5ccc(O)c4O[C@H]2[C@@H](O)C=C[C@H]3[C@H]1C5", "note": "[8(R), N-α-methylallylnormorphine]", "values": [
      {"measurement": "ED50", "setting": "mice [2]", "value": 44.5, "unit": "µmol/kg"},
      {"measurement": "ED50", "setting": "mice [3]", "value": 13, "unit": "µmol/kg"},
      {"measurement": "ED50", "setting": "mice [4]; mice injected with morphine", "value": 11, "unit": "µmol/kg"}
    ]},
    {"molecule": "C=CCN1CC[C@]23c4c5ccc(O)c4O[C@H]2[C@@H](O)C=C[C@H]3[C@H]1C5", "note": "[Nalorphine, N-allylnormorphine, reference compound]", "values": [
      {"measurement": "ED50", "setting": "mice [4]; mice injected with morphine", "value": 1, "unit": "µmol/kg"},
      {"measurement": "Total Number Mice Affected (Jumped)", "setting": "mice [5]; [7]", "value": "0-3"},
      {"measurement": "number of mice jumping / withdrawal symptoms (in words)", "setting": "mice [5]", "value": "very small"}
    ]},
    {"molecule": "CN1CC[C@]23c4c5ccc(O)c4O[C@H]2[C@@H](O)C=C[C@H]3[C@H]1C5", "note": "[Morphine]", "values": [
      {"measurement": "Inhibition of Straub tail response (result in words)", "setting": "mice [4]; mice injected with morphine", "value": "No inhibition"},
      {"measurement": "Total Number Mice Affected (Jumped)", "setting": "mice [5]; [7]", "value": 10},
      {"measurement": "number of mice jumping / withdrawal symptoms (in words)", "setting": "mice [5]", "value": "all of the mice showed withdrawal symptoms"}
    ]},
    {"molecule": "CC(C)=CCN1CCC2(C)c3cc(O)ccc3CC1C2C", "note": "(stereo not shown) [pentazocine]", "values": [
      {"measurement": "analgesic potency relative to morphine", "setting": "[6]; fraction of the potency of morphine", "value": "about one-fourth"},
      {"measurement": "antagonist activity (in words)", "setting": "[1]", "value": "dual agonist-antagonist"}
    ]},
    {"molecule": "CCCCN1CC[C@]23c4c5ccc(O)c4O[C@H]2[C@@H](O)C=C[C@H]3[C@H]1C5", "note": "[N-butyl-, N-butylnormorphine]", "values": [
      {"measurement": "analgesic / agonist activity (in words)", "setting": "[6]", "value": "potent analgesic activity"},
      {"measurement": "antagonist activity (in words)", "setting": "[1]", "value": "devoid of antagonist properties"}
    ]},
    {"molecule": "CC(C)CN1CC[C@]23c4c5ccc(O)c4O[C@H]2[C@@H](O)C=C[C@H]3[C@H]1C5", "note": "[N-isobutylnormorphine]", "values": [
      {"measurement": "antagonist activity (in words)", "setting": "[1]", "value": "morphine antagonists only"}
    ]},
    {"molecule": "C=CC(C)N1CC[C@]23c4c5ccc(O)c4O[C@H]2[C@@H](O)C=C[C@H]3[C@H]1C5", "note": "(stereo partly drawn) [Compound 8, N-α-methylallylnormorphine]", "values": [
      {"measurement": "analgesic activity (in words)", "setting": "mice [2]", "value": "analgesic activities similar to morphine"},
      {"measurement": "antagonist properties (in words)", "setting": "mice [4]", "value": "antagonist properties indicative of low addiction potential"}
    ]},
    {"molecule": "CC(C)N1CC[C@]23c4c5ccc(O)c4O[C@H]2[C@@H](O)C=C[C@H]3[C@H]1C5", "note": "[N-isopropyl-normorphine]", "values": [
      {"measurement": "analgesic / agonist activity (in words)", "setting": "[6]", "value": "not a good agonist"},
      {"measurement": "antagonist activity (in words)", "setting": "[1]", "value": "little, if any, antagonist qualities"}
    ]},
    {"molecule": "CCC(C)N1CC[C@]23c4c5ccc(O)c4O[C@H]2[C@@H](O)C=C[C@H]3[C@H]1C5", "note": "(stereo partly shown) [Compound 7, N-2-butylnormorphine]", "values": [
      {"measurement": "analgesic activity (in words)", "setting": "mice [2]", "value": "analgesic activities similar to morphine"},
      {"measurement": "antagonist properties (in words)", "setting": "mice [4]", "value": "antagonist properties indicative of low addiction potential"}
    ]},
    {"molecule": "CCCCCN1CC[C@]23c4c5ccc(O)c4O[C@H]2[C@@H](O)C=C[C@H]3[C@H]1C5", "note": "[N-amyl-, N-amylnormorphine]", "values": [
      {"measurement": "analgesic / agonist activity (in words)", "setting": "[6]", "value": "potent analgesic activity"},
      {"measurement": "antagonist activity (in words)", "setting": "[1]", "value": "devoid of antagonist properties"}
    ]},
    {"molecule": "CC[C@@H](C)N1CC[C@]23c4c5ccc(O)c4O[C@H]2[C@@H](O)C=C[C@H]3[C@H]1C5", "note": "[7(R), N-2-butylnormorphine]", "values": [
      {"measurement": "ED50", "setting": "mice [2]", "value": 19, "unit": "µmol/kg"},
      {"measurement": "ED50", "setting": "mice [3]", "value": 6.4, "unit": "µmol/kg"},
      {"measurement": "ED50", "setting": "mice [4]; mice injected with morphine", "value": 16.2, "unit": "µmol/kg"},
      {"measurement": "Total Number Mice Affected (Jumped)", "setting": "mice [5]; [7]", "value": 1},
      {"measurement": "number of mice jumping / withdrawal symptoms (in words)", "setting": "mice [5]", "value": "very small"}
    ]},
    {"molecule": "CC(C1CC1)N1CC[C@]23c4c5ccc(O)c4O[C@H]2[C@@H](O)C=C[C@H]3[C@H]1C5", "note": "(stereo partly drawn) [Compound 9, N-α-methylcyclopropylmethylnormorphine]", "values": [
      {"measurement": "ED50", "setting": "mice [2]", "value": 12.4, "unit": "µmol/kg"},
      {"measurement": "analgesic activity (in words)", "setting": "mice [2]", "value": "analgesic activities similar to morphine"},
      {"measurement": "ED50", "setting": "mice [3]", "value": 0.69, "unit": "µmol/kg"},
      {"measurement": "ED50", "setting": "mice [4]; mice injected with morphine", "value": 4.5, "unit": "µmol/kg"},
      {"measurement": "antagonist properties (in words)", "setting": "mice [4]", "value": "antagonist properties indicative of low addiction potential"},
      {"measurement": "Total Number Mice Affected (Jumped)", "setting": "mice [5]; [7]", "value": 1},
      {"measurement": "number of mice jumping / withdrawal symptoms (in words)", "setting": "mice [5]", "value": "very small"}
    ]},
    {"molecule": "CC[C@H](C)N1CC[C@]23c4c5ccc(O)c4O[C@H]2[C@@H](O)C=C[C@H]3[C@H]1C5", "note": "[7(S), N-2-butylnormorphine]", "values": [
      {"measurement": "ED50", "setting": "mice [2]", "value": 13.4, "unit": "µmol/kg"},
      {"measurement": "ED50", "setting": "mice [3]", "value": 11, "unit": "µmol/kg"},
      {"measurement": "ED50", "setting": "mice [4]; mice injected with morphine", "value": 7.4, "unit": "µmol/kg"},
      {"measurement": "Total Number Mice Affected (Jumped)", "setting": "mice [5]; [7]", "value": 2},
      {"measurement": "Total Number Mice Affected (Jumped)", "setting": "mice [5]; 8-100 mg/kg day 1, 200-300 mg/kg day 2, 300 mg/kg day 3, 100 mg/kg Naloxone day 4, 10 mice tested", "value": 1},
      {"measurement": "number of mice jumping / withdrawal symptoms (in words)", "setting": "mice [5]", "value": "very small"}
    ]},
    {"molecule": "CCCCCCN1CC[C@]23c4c5ccc(O)c4O[C@H]2[C@@H](O)C=C[C@H]3[C@H]1C5", "note": "[N-hexylnormorphine]", "values": [
      {"measurement": "analgesic / agonist activity (in words)", "setting": "[6]", "value": "potent analgesic activity"},
      {"measurement": "antagonist activity (in words)", "setting": "[1]", "value": "devoid of antagonist properties"}
    ]},
    {"molecule": "CCC(CC)N1CC[C@]23c4c5ccc(O)c4O[C@H]2[C@@H](O)C=C[C@H]3[C@H]1C5", "note": "[Compound 10, N-3-pentylnormorphine]", "values": [
      {"measurement": "ED50", "setting": "mice [2]", "value": 19.9, "unit": "µmol/kg"},
      {"measurement": "analgesic activity (in words)", "setting": "mice [2]", "value": "analgesic activities similar to morphine"},
      {"measurement": "ED50", "setting": "mice [3]", "value": 2.3, "unit": "µmol/kg"},
      {"measurement": "ED50", "setting": "mice [4]; mice injected with morphine", "value": 17.2, "unit": "µmol/kg"},
      {"measurement": "antagonist properties (in words)", "setting": "mice [4]", "value": "antagonist properties indicative of low addiction potential"}
    ]},
    {"molecule": "COc1ccc2c3c1O[C@H]1[C@@H](O)C=C[C@H]4[C@@H](C2)N(C(C)C)CC[C@@]341", "note": "[N-isopropyl-norcodeine]", "values": [
      {"measurement": "analgesic / agonist activity (in words)", "setting": "[6]", "value": "inactive"}
    ]}
  ]
}
